The values that follow come from the supplement of paper PMC11061612.

Assay [1] relates to RVH-421 (Melanoma). The assay can be described thus: Bliss excess, mean over the matrix (fraction); higher = more synergy. A digest of the protocol:
(§1)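 After 24 hours at 37°C and 5% CO2 in 1536-well plates, cells in DMEM/F12 or RPMI plus 10% FBS received two-drug dose matrices for 72 hours. Viability came from CellTiter-Glo 2.0 luminescence and was scaled as inhibition, anchored at 0 by vehicle wells and at 1 by blank wells. Combination Emax is taken as the second-highest inhibition in the matrix, and Bliss excess as the observed combination effect less EA + EB − EA·EB, with EA and EB the single-agent effects.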

Assay [2] has as its system MDA-MB-175-VII (Breast Carcinoma). The assay is described as above. A digest of the protocol: as §1
The subject of a further assay is C32 (Melanoma). The description is as above. In outline: as §1
The test system of assay [3] is HT-1197 (Bladder Carcinoma). The assay is described as above. In outline:
as §1

For assay [4], the system named is BT-474 (Breast Carcinoma). Described as above. In outline:
as §1

Assay [5] relates to TOV-21G (Ovarian Carcinoma). The assay is described as above. In outline:
as §1

The test system of assay [6] is SW1463 (Colorectal Carcinoma). Described as above. In outline: as §1
The test system of assay [7] is NCI-H2023 (Non-Small Cell Lung Carcinoma). The assay is described as above. A digest of the protocol:
as §1

Assay [8] concerns SNU-1 (Gastric Carcinoma). The assay is described as above. A digest of the protocol:
as §1

Assay [9] relates to KNS-62 (Squamous Cell Lung Carcinoma). The assay is described as above. A digest of the protocol:
as §1

For another assay, the system named is SK-MEL-24 (Melanoma). Described as above. A digest of the protocol: as §1
Another assay concerns A375 (Melanoma). The assay is described as above. In outline:
as §1

The test system of assay [10] is NCI-H1048 (Small Cell Lung Carcinoma). The description is as above. A digest of the protocol: as §1
The next assay concerns DK-MG (Glioblastoma). The description is as above. A digest of the protocol:
as §1

For assay [11], the system named is OVKATE (Ovarian Carcinoma). The description is as above. In outline: as §1
The test system of assay [12] is RVH-421 (Melanoma). The assay can be described thus: combination Emax (second highest fraction inhibited in the dose matrix, 72 h); higher = more inhibition; extreme values may be limits of the assay. A digest of the protocol:
as §1
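Throughout, for Bliss excess, mean over the matrix: after 72 h of two-drug dosing.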

For the molecule `CN(CCO)CC[C@H](CSc1ccccc1)Nc1ccc(S(=O)(=O)NC(=O)c2ccc(N3CCC([C@@H](O)c4ccccc4-c4ccc(Cl)cc4)CC3)cc2)cc1S(=O)(=O)C(F)(F)F` [AZD4320] + C1CN(CCC1(C(=O)N[C@@H](CCO)C2=CC=C(C=C2)Cl)N)C3=NC=NC4=C3C=CN4 [Capivasertib] (first compound max 1 µM, 7x7, partner max 3 µM), the Bliss excess in the assay on RVH-421 (Melanoma) [1] was -0.0454; in [2] it was 0.0425; in the assay on C32 (Melanoma) it was -0.0564; in [3], 0.0311; in assay [4] it was -0.0487; in assay [5] it was -0.0429. Also, the Bliss excess was -0.0497 in assay [6]; -0.103 in [7]; -0.0441 in assay [8]; -0.0637 in assay [9]; -0.0428 in the assay with SK-MEL-24 (Melanoma); -0.0414 in the assay on A375 (Melanoma). Further, the figures for the Bliss excess (in assay [10]; in the assay on DK-MG (Glioblastoma); in assay [11]) were 0.0513, -0.0847 and -0.0775, respectively. In addition, the “combination Emax” value in the assay on RVH-421 (Melanoma) [12] came out at 0.486.
Turning to `Cc1c2c(nn1C)CSCc1cc(n(C)n1)CSc1cc(c3ccccc3c1)OCCCc1c(C(=O)O)n(C)c3c-2c(Cl)ccc13` [AZD5991] + C[C@@H](Nc1cc(F)cc(F)c1)c1cc(C(=O)N(C)C)cc2c(=O)cc(N3CCOCC3)oc12 [AZD8186] (first compound max 1 µM, 7x7, partner max 3 µM), the Bliss excess is -0.0204 with RVH-421 (Melanoma) [1]; -0.0006 in assay [2]; 0.0051 with C32 (Melanoma); -0.0055 in assay [3]; -0.0099 in assay [4]; -0.0139 in [5]. In addition, the Bliss excess was -0.0398 in [6]; -0.0253 in [7]; 0.002 in assay [8]; -0.0449 in assay [9]; -0.0081 in the assay on SK-MEL-24 (Melanoma); -0.0124 in the assay on A375 (Melanoma). Further, the values for the Bliss excess (in assay [10]; with DK-MG (Glioblastoma); in [11]) were 0.0019, 0.0095 and -0.0298, respectively. Further, the “combination Emax” value in the assay with RVH-421 (Melanoma) [12] worked out at 0.517.
Consider `CN(C)CCCOc1ccc(-c2ccc3ncc4c(c3c2)n(C2CCOCC2)c(=O)n4C)cn1` [AZD0156] + CCN(CCO)CCCOc1ccc2c(Nc3cc(CC(=O)Nc4cccc(F)c4)[nH]n3)ncnc2c1 [AZD2811] (first compound max 1 µM, 7x7, partner max 1 µM), for which the Bliss excess in the assay with RVH-421 (Melanoma) [1] is -0.0626; in [2], -0.018; with C32 (Melanoma), -0.0213; in assay [3], -0.0376; in assay [4] it was -0.0423; in [5] it was 0.0147. Moreover, the Bliss excess is -0.0322 in assay [6]; 0.0066 in assay [7]; 0.093 in [8]; -0.0213 in assay [9]; -0.0401 in the assay with SK-MEL-24 (Melanoma); -0.0112 in the assay on A375 (Melanoma). The Bliss excess in assay [10] is -0.0053; in the assay on DK-MG (Glioblastoma) it was 0.0081; in [11], -0.0648. For the same molecule, the “combination Emax” value in the assay with RVH-421 (Melanoma) [12] was found to be 0.0787.
Take `CC1(C)CCC(CN2CCN(c3ccc(C(=O)NS(=O)(=O)c4ccc(NCC5CCOCC5)c([N+](=O)[O-])c4)c(Oc4cnc5[nH]ccc5c4)c3)CC2)=C(c2ccc(Cl)cc2)C1` [Venetoclax] + CN(C)CCCOc1ccc(-c2ccc3ncc4c(c3c2)n(C2CCOCC2)c(=O)n4C)cn1 [AZD0156] (first compound max 1 µM, 7x7, partner max 1 µM): the Bliss excess in the assay with RVH-421 (Melanoma) [1] was -0.0658; in assay [2], -0.0319; in the assay with C32 (Melanoma), -0.015; in assay [3], -0.0266; in [4] it was -0.0072; in assay [5], -0.0322. In addition, the Bliss excess in [6] is -0.045; in [7], -0.058; in [8], -0.0069; in assay [9] it was -0.0183; with SK-MEL-24 (Melanoma), -0.0426; in the assay with A375 (Melanoma), -0.003. For the same molecule, the Bliss excess was 0.0016 in [10], -0.0222 in the assay with DK-MG (Glioblastoma) and -0.0856 in [11]. For the same molecule, the “combination Emax” value in the assay on RVH-421 (Melanoma) [12] came out at 0.16.
In the case of `CC1(C)CCC(CN2CCN(c3ccc(C(=O)NS(=O)(=O)c4ccc(NCC5CCOCC5)c([N+](=O)[O-])c4)c(Oc4cnc5[nH]ccc5c4)c3)CC2)=C(c2ccc(Cl)cc2)C1` [Venetoclax] + Cn1cnc2c(F)c(Nc3ccc(Br)cc3Cl)c(C(=O)NOCCO)cc21 [Selumetinib] (first compound max 1 µM, 7x7, partner max 3 µM), the Bliss excess in the assay on RVH-421 (Melanoma) [1] is -0.0317; in assay [2], -0.0556; with C32 (Melanoma), -0.0278; in assay [3], -0.0072; in assay [4] it was -0.0419; in assay [5] it was 0.0133. Further, the Bliss excess in assay [6] is -0.0631; in [7] it was -0.0489; in assay [8] it was -0.0541; in assay [9] it was -0.047; in the assay with SK-MEL-24 (Melanoma), -0.0001; in the assay on A375 (Melanoma), -0.0437. Further, the Bliss excess in assay [10] is -0.0067; in the assay with DK-MG (Glioblastoma), -0.0177; in [11], -0.0584. Further, in the assay with RVH-421 (Melanoma) [12], the “combination Emax” value amounted to 0.385.
Turning to `CC(=O)Nc1cccc(-n2c(=O)n(C3CC3)c(=O)c3c(Nc4ccc(I)cc4F)n(C)c(=O)c(C)c32)c1` [Trametinib] + Cc1nc(-c2cn3c(n2)-c2ccc(-c4cnn(C(C)(C)C(N)=O)c4)cc2OCC3)n(C(C)C)n1 [Taselisib] (first compound max 1 µM, 7x7, partner max 10 µM), the Bliss excess in the assay with RVH-421 (Melanoma) [1] is 0.0732; in assay [2], 0.232; in the assay on C32 (Melanoma), 0.0958; in assay [3], 0.105; in [4] it was 0.0002; in assay [5] it was -0.051. The Bliss excess in assay [6] turned out to be 0.04; in [7], 0.0549; in [8], 0.202; in assay [9], 0.056; in the assay with SK-MEL-24 (Melanoma) it was 0.012; in the assay on A375 (Melanoma), 0.0783. Moreover, the Bliss excess is 0.245 in assay [10], 0.102 with DK-MG (Glioblastoma) and 0.113 in assay [11]. Further, the “combination Emax” value with RVH-421 (Melanoma) [12] was found to be 0.638.
On to `Cc1c2c(nn1C)CSCc1cc(n(C)n1)CSc1cc(c3ccccc3c1)OCCCc1c(C(=O)O)n(C)c3c-2c(Cl)ccc13` [AZD5991] + C1CN(CCC1(C(=O)N[C@@H](CCO)C2=CC=C(C=C2)Cl)N)C3=NC=NC4=C3C=CN4 [Capivasertib] (first compound max 1 µM, 7x7, partner max 3 µM), for which the Bliss excess with RVH-421 (Melanoma) [1] was -0.0513; in assay [2], 0.0261; in the assay with C32 (Melanoma), 0.0009; in assay [3], -0.0002; in assay [4], 0.0359; in assay [5] it was -0.0249. The Bliss excess was -0.0085 in assay [6]; -0.0028 in assay [7]; -0.0176 in assay [8]; 0.0047 in [9]; -0.0196 in the assay with SK-MEL-24 (Melanoma); -0.0192 with A375 (Melanoma). For the same molecule, the Bliss excess in assay [10] is 0.0267; in the assay on DK-MG (Glioblastoma), 0.047; in assay [11], -0.0461. In the assay with RVH-421 (Melanoma) [12], the “combination Emax” value stood at 0.411.
